Data taken from PubChem BioAssay (NCI).
Values joined by “and” are separate entries in the source; they are usually repeats but may differ in a detail not shown here. Equal values may be shown once.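 Five concentrations, 48 hours, 96-well plates. The concentration for 50% growth inhibition is given as GI50. At the TGI there is no net growth.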

Columns and labels:
Assay in all cases: DTP human tumour cell line panel, 48 h
IGROV1 ovarian = test system: IGROV1 ovarian
DU-145 prostate = test system: DU-145 prostate
EKVX NSCLC = test system: EKVX NSCLC
MDA-MB-231 breast = test system: MDA-MB-231 breast
HCT-15 colon = test system: HCT-15 colon
MCF7 breast = test system: MCF7 breast
OVCAR-8 ovarian = test system: OVCAR-8 ovarian
786-0 renal = test system: 786-0 renal
SK-MEL-2 melanoma = test system: SK-MEL-2 melanoma
M14 melanoma = test system: M14 melanoma

Structure (SMILES) | TGI (IGROV1 ovarian) | TGI (DU-145 prostate) | TGI (EKVX NSCLC) | TGI (MDA-MB-231 breast) | TGI (HCT-15 colon) | TGI (MCF7 breast) | TGI (OVCAR-8 ovarian) | TGI (786-0 renal) | TGI (SK-MEL-2 melanoma) | TGI (M14 melanoma) | GI50 (IGROV1 ovarian) | GI50 (DU-145 prostate) | GI50 (EKVX NSCLC) | GI50 (M14 melanoma) | GI50 (MDA-MB-231 breast) | GI50 (HCT-15 colon) | GI50 (MCF7 breast) | GI50 (OVCAR-8 ovarian) | GI50 (SK-MEL-2 melanoma)
CN(CCNC(=S)c1cn(C)c2c1ccc1ccccc12)CCNC(=S)c1cn(C)c2c1ccc1ccccc12 | > 100 µM | > 100 µM | > 100 µM | > 100 µM | > 100 µM | > 100 µM | > 100 µM | > 100 µM | > 100 µM | – | – | – | – | – | – | – | – | – | –
COC(=O)[C@@]1(NC(=O)C(CC(=O)OC(C)(C)C)NC(=O)OC(C)(C)C)C[C@H]1C (stereo partly specified) | > 100 µM | > 100 µM | > 100 µM | > 100 µM | > 100 µM | > 100 µM | > 100 µM | > 100 µM | > 100 µM | > 100 µM | – | – | – | – | – | – | – | – | –
NC(=O)c1sc2nc3ccccc3n2c1N | > 100 µM | > 100 µM | > 100 µM | > 100 µM | > 100 µM | > 100 µM | > 100 µM | > 100 µM | 99.2 µM | > 100 µM | – | – | – | – | – | – | – | – | –
O=C(O)CCCc1ccccc1 | > 1000 µM | > 1000 µM | > 1000 µM | > 1000 µM | 342 µM and > 1000 µM | > 1000 µM | – | – | 932 µM and > 1000 µM | > 1000 µM | 412 µM and > 1000 µM | > 1000 µM | 294 µM and > 1000 µM | > 1000 µM | 338 µM and > 1000 µM | > 1000 µM | 160 µM and > 1000 µM | 150 µM and 17.3 µM | 349 µM and > 1000 µM
COc1cc(C(=O)O)c(-c2cc3c(cc2C=O)OCO3)c(OC)c1OC | > 10 µM | > 10 µM | – | > 10 µM | > 10 µM | > 10 µM | > 10 µM | > 10 µM | – | > 10 µM | – | – | – | – | – | – | – | – | –
c1n[nH]cc1C12C3C4C5C3C1C5C42 (stereo unspecified) | > 100 µM | > 100 µM | > 100 µM | > 100 µM | > 100 µM | > 100 µM | > 100 µM | > 100 µM | > 100 µM | > 100 µM | – | – | – | – | – | – | – | – | –
COc1ccc(C(=O)Oc2c(C#N)sc3c2c(=O)n(-c2ccccc2)c(=S)n3-c2ccccc2)cc1 | 44.4 µM | > 100 µM | 31.3 µM | > 100 µM | 46.3 µM | 80.4 µM | > 100 µM | > 100 µM | – | 44.8 µM | – | – | – | – | – | – | – | – | –
CCC(C)N1CN(c2ccccc2)C2(CCN(CCCSc3ccc(F)cc3)CC2)C1=O (stereo unspecified) | 14.2 µM | 10.1 µM | 10.4 µM | 1.1 µM | 4.2 µM | 11.1 µM | 21.5 µM | 7.88 µM | – | 7.08 µM | – | – | – | – | – | – | – | – | –
CCN1C[C@]2(C)CC[C@H](OC)C34C5C[C@@H]6[C@@H](OC)C[C@@](OC)(C5[C@H]6OCc5ccccc5)C(C13)[C@H](OC(C)=O)[C@@H]42 (stereo partly specified) | > 100 µM | > 100 µM | > 100 µM | > 100 µM | > 100 µM | > 100 µM | > 100 µM | > 100 µM | > 100 µM | > 100 µM | – | – | – | – | – | – | – | – | –
O=[N+]([O-])C(=C/c1cccc2ccccc12)/C(=C\c1cccc2ccccc12)[N+](=O)[O-] | 4.13 µM | 8.77 µM | 11.6 µM | 5.14 µM | 3.95 µM | 16.8 µM | 7.29 µM | 3.72 µM | 55.3 µM | 11.3 µM | – | – | – | – | – | – | – | – | –
COc1ccc(-n2c(C)nc3ccc(NC4OC(CO)C(O)C(O)C4O)cc3c2=O)cc1 (stereo unspecified) | > 100 µM | > 100 µM | > 100 µM | > 100 µM | > 100 µM | > 100 µM | > 100 µM | > 100 µM | > 100 µM | – | – | – | – | – | – | – | – | – | –
O=C1/C(=C/c2cccs2)NC(=S)N1CN1CCCCC1 | > 100 µM | > 100 µM | > 100 µM | > 100 µM | > 100 µM | > 100 µM | > 100 µM | > 100 µM | > 100 µM | > 100 µM | – | – | – | – | – | – | – | – | –
CC1CC(N2CCOCC2)=Nc2ccccc2N1Cc1ccccc1 (stereo unspecified) | > 100 µM | > 100 µM | > 100 µM | > 100 µM | > 100 µM | – | > 100 µM | > 100 µM | > 100 µM | > 100 µM | – | – | – | – | – | – | – | – | –
CCOC(=O)/C=C\C(C#N)(C#N)N=Cc1ccsc1 | 28.2 µM | 30.7 µM | 30.6 µM | 30.9 µM | 10.1 µM | 8 µM | 14.6 µM | 5.01 µM | 33.1 µM | 9.5 µM | – | – | – | – | – | – | – | – | –
O=C(Nc1ccc2[nH]c(C(=O)N3CC(CCl)c4ccc([N+](=O)[O-])cc43)cc2c1)c1cc2ccccc2o1 (stereo unspecified) | > 1100 µM | > 1100 µM | > 1100 µM | > 1100 µM | > 1100 µM | > 1100 µM | > 1100 µM | > 1100 µM | > 1100 µM | > 1100 µM | – | – | – | – | – | – | – | – | –
Cc1cccc(CNc2ncnc3[nH]ncc23)c1 | > 100 µM | > 100 µM | > 100 µM | > 100 µM | > 100 µM | > 100 µM | > 100 µM | > 100 µM | > 100 µM | > 100 µM | – | – | – | – | – | – | – | – | –
CC1SC(c2ccc(Cl)cc2)N(CCc2cccs2)C1=O (stereo unspecified) | 5.77 µM | 4.87 µM | 4.47 µM | 3.28 µM | 3.59 µM | 6.23 µM | 4.08 µM | – | 2.72 µM | – | 1.8 µM | 1.83 µM | 1.3 µM | – | 1.55 µM | 1.56 µM | 2.11 µM | 1.93 µM | 1.36 µM
C=C(CCC=C(C)C)C1CC=C(C)CC1 (stereo unspecified) | 28.4 µM | 71.1 µM | 92.7 µM | 97.6 µM | 39.6 µM | 42.2 µM | > 100 µM | 35.7 µM | 37.5 µM | > 100 µM | – | – | – | – | – | – | – | – | –
FC(F)(F)c1cccnc1Sc1nc2ccccc2s1 | > 100 µM | > 100 µM | > 100 µM | > 100 µM | > 100 µM | > 100 µM | > 100 µM | > 100 µM | > 100 µM | > 100 µM | – | – | – | – | – | – | – | – | –
C[C@@]1(OC(=O)c2cc([N+](=O)[O-])cc([N+](=O)[O-])c2)C[C@@H]2CCCC[C@@H]21 | > 100 µM | > 100 µM | > 100 µM | > 100 µM | > 100 µM | > 100 µM | > 100 µM | > 100 µM | > 100 µM | > 100 µM | – | – | – | – | – | – | – | – | –
